{"source": "patent US9557341B2", "about": "“Risk assessment for cutaneous adverse drug reactions from antiretroviral agent” (priority 2008, dated 2017)", "origin": "cited, not measured here", "details": "cited from earlier work; for hypersensitivity reaction incidence: mix French population", "note": "Read-outs that look alike come from different tables or passages of the source."}
{"smiles": "O=C1Nc2ccc(Cl)cc2[C@@](C#CC2CC2)(C(F)(F)F)O1", "note": "[EFV, efavirenz]", "values": [{"measurement": "rate of drug rash", "setting": "human, in vivo", "value": 11, "unit": "%"}, {"measurement": "rate of hepatitis", "setting": "human, in vivo", "value": 9, "unit": "%"}]}
{"smiles": "Nc1nc(NC2CC2)c2ncn([C@H]3C=C[C@@H](CO)C3)c2n1", "note": "[abacavir]", "values": [{"measurement": "odds ratios, hypersensitivity and HLA-B*5701", "setting": "Caucasians", "value": 117}, {"measurement": "rate of unwarranted interruptions of therapy", "setting": "after HLA-B*5701 screening", "value": 0.73, "unit": "%"}, {"measurement": "rate of unwarranted interruptions of therapy", "setting": "before HLA-B*5701 screening", "value": 10.2, "unit": "%"}, {"measurement": "negative predictive value of HLA-B*5701 for hypersensitivity", "setting": "every ethnic studies", "value": "more than 90%"}, {"measurement": "hypersensitivity syndrome, cases", "setting": "human, in vivo", "value": "about 5%"}, {"measurement": "hypersensitivity reaction incidence", "setting": "after HLA-B*5701 screening", "value": 0, "unit": "%"}, {"measurement": "hypersensitivity reaction incidence", "setting": "before HLA-B*5701 screening", "value": 12, "unit": "%"}]}
